# ChEMBL document CHEMBL4373635, “Synthesis of novel vanillin derivatives: novel multi-targeted scaffold ligands against Alzheimer's disease” (Medchemcomm, 2019)
# Calls of active or inactive are those of the source. No cut-off for these calls is given here.
# Assays:
# Acetylcholinesterase = Acetylcholinesterase (Electrophorus electricus, UniProt O42275); experiment: Inhibition of Electrophorus electricus AChE using acetylthiocholine iodide as substrate preincubated for 10 mins followed by substrate addition and measured after 10 mins by Ellman's method
# [1] = Antioxidant activity assessed as reduction of ferric-tripyridyltriazine complex by measuring trolox equivalents at pH 3.5 after 30 mins under dark condition by FRAP assay; format: functional
# [2] = Antioxidant activity assessed as AAPH radical scavenging activity by measuring trolox equivalents preincubated for 30 mins followed by AAPH addition and measured every 2 mins for 2 hrs by ORAC assay; format: functional
# [3] = target: Amyloid-beta precursor protein (Homo sapiens) (UniProt P05067); experiment: Inhibition of amyloid beta (1 to 42 ) (unknown origin) self aggregation at 10 uM after 24 hrs by thioflavin-T fluorescence method relative to control
# SH-SY5Y [4] = experiment: Cytotoxicity against human SH-SY5Y cells assessed as cell viability at 5 uM after 24 hrs by MTT assay; format: cell-based
# SH-SY5Y [5] = experiment: Cytotoxicity against human SH-SY5Y cells assessed as reduction in cell viability at 25 uM after 24 hrs by MTT assay; format: cell-based
# SH-SY5Y [6] = experiment: Neuroprotective activity against human SH-SY5Y cells assessed as inhibition of H2O2-induced cell death at 1 uM preincubated for 24 hrs followed by H2O2 treatment and measured after 24 hrs by MTT assay; format: functional, cell-based
# SH-SY5Y [7] = experiment: Neuroprotective activity against human SH-SY5Y cells assessed as inhibition of H2O2-induced cell death at 5 uM preincubated for 24 hrs followed by H2O2 treatment and measured after 24 hrs by MTT assay relative to control; format: functional
# SH-SY5Y [8] = experiment: Cytotoxicity against human SH-SY5Y cells assessed as reduction in cell viability after 24 hrs by MTT assay; format: cell-based
# SH-SY5Y [9] = experiment: Cytotoxicity against human SH-SY5Y cells assessed as cell viability at 12.5 uM after 24 hrs by MTT assay; format: cell-based
# SH-SY5Y [10] = experiment: Neuroprotective activity against human SH-SY5Y cells assessed as H2O2-induced cell death at 0.01 to 0.1 uM preincubated for 24 hrs followed by H2O2 treatment and measured after 24 hrs by MTT assay; format: functional, cell-based
# Sequence of Amyloid-beta precursor protein (Homo sapiens) (P05067 whole entry): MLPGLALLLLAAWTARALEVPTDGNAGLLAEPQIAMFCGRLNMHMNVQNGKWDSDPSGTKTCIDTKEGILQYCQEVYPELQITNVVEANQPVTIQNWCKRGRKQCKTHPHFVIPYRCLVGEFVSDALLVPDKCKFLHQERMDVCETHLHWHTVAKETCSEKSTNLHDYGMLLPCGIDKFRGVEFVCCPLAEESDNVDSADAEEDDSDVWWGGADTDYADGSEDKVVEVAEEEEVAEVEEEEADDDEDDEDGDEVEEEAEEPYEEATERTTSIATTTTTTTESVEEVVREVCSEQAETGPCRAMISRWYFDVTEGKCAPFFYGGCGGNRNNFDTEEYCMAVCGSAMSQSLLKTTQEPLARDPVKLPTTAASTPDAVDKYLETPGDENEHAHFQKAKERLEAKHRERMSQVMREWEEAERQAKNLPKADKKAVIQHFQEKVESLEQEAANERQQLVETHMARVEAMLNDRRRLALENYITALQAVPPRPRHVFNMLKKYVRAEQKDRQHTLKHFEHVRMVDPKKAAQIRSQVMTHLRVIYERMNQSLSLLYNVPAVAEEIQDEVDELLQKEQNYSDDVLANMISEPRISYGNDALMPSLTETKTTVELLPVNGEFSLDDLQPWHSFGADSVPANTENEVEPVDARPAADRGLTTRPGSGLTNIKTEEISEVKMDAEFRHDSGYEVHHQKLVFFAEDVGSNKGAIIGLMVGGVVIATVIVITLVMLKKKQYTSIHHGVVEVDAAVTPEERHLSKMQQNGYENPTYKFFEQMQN
# Sequence of Acetylcholinesterase (O42275 whole entry): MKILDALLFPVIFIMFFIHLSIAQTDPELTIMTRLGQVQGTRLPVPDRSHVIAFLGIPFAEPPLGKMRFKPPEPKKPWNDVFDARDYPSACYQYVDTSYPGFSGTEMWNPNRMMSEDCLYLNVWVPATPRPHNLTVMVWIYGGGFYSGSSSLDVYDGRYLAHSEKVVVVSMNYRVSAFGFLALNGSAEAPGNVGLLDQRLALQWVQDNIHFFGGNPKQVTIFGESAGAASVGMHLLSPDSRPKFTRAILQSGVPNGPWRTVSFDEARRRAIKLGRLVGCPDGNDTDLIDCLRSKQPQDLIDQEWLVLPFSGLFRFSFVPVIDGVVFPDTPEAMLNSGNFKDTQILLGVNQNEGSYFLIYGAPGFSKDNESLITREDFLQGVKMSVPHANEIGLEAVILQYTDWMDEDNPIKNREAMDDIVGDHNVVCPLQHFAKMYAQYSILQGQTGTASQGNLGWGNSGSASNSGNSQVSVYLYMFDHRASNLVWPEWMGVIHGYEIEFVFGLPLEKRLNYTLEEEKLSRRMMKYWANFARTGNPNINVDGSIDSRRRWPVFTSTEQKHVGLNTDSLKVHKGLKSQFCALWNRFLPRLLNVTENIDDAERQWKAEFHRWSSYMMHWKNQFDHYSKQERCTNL
Structure (SMILES),IC50 (Acetylcholinesterase) [µM],Activity [1] [equiv],Activity [2] [equiv],inhibition [3] [%],Activity (SH-SY5Y [4]),Activity (SH-SY5Y [5]),Activity (SH-SY5Y [6]),inhibition at 5 µM (SH-SY5Y [7]) [%],IC50 (SH-SY5Y [8]) [µM],Activity (SH-SY5Y [9]),Activity (SH-SY5Y [10])
COc1cc(CNCCCN2C(=O)c3cccc4cccc(c34)C2=O)ccc1O,10.1,0.26,3.9,30.4,–,–,–,–,–,–,–
COc1cc(CNc2ccc(Nc3c4c(nc5ccccc35)CCCC4)cc2)ccc1O,2.13,1.54,6.4,77.1,Non-Toxic,Toxic,Active,30,45.1,Non-Toxic,inactive
COc1cc(CNCCCN2C(=O)c3cccc4cccc(c34)C2=O)cc(OC)c1O,24.3,1.45,2,33.2,–,–,–,–,–,–,–
COc1cc(/C=N/CCCN2C(=O)c3cccc4cccc(c34)C2=O)ccc1O,128,0.07,2.1,–,–,–,–,–,–,–,–
